Experimental data published in patent publication US7261901B2, “Vaccine and compositions for the prevention and treatment of neisserial infections” (University of Iowa Research Foundation, priority 2001, dated 2007).

What was measured:
Ectocervical Cells = assay: Association and invasion (gentimicin-resistance) assays, primary ectocervical (pex) cells; type: cell-based, human
Experimental: (§1) 8. N. gonorrhoeae Attachment to and Invasion of Primary, Human, Cervical Cells. Primary cervical cell monolayers were infected with wild-type or PLD mutant gonococci as outlined above. Variable concentrations of Streptomyces spp. PLD (SsPLD) (Sigma), PMA, or 4-α phorbol were included in association (adherence and invasion) or invasion assays, as noted. Cervical cells were preincubated (30 minutes, 37° C.) with 200 nM PMA or 4-α phorbol before the addition of gonococci. 10 units ml^−1 SsPLD was added simultaneously with gonococci. Alternatively, where noted, cervical cell monolayers were pre-incubated (30 minutes, 37° C.) with pervanadate, which was made by mixing 100 μM ortho-sodium vanadate in 3 mM hydrogen peroxide. In separate assays, infection supernatants were collected from wild-type or PLD mutant-infected cervical cell monolayers, gonococci were removed by filtration through a 0.22 μm syringe filter (i.e., wild-type or mutant primed supernatants) and were added to association and/or invasion assays, as noted. The ability of gonococci to adhere to and/or invade pex and pen cells was quantitatively determined using standard gentimicin-resistance assays, performed as described previously (Edwards et al., 2000), and in which chemical or protein additives were included or excluded from the invasion assay as described above. The total association (i.e., adherence and invasion) of gonococci with pex and pen cells was quantitated by the omission of gentimicin from the above described invasion assay. Percent invasion of N. gonorrhoeae 1291 or 1291ΔPLDin the presence or absence of experimental additives was determined as a function of the original inoculum and the number of colonies formed with subsequent plating of the cellular lysate. A Kruskal-Wallis non-parametric analysis of variance was used to determine the statistical significance of the association and invasion assays described above.
N. gonorrhoeae Attachment to and Invasion of Primary, Human, Cervical Cells. Primary cervical cell monolayers were infected with wild-type or PLD mutant gonococci as outlined above. Variable concentrations of PtC (Sigma), ethanol, 2-butanol, or Streptomyces spp. PLD (SsPLD) (Sigma) were included in association (adherence and invasion) or invasion assays, as noted. PtC, ethanol, 2-butanol, or 10 units ml^−1 SsPLD were added simultaneously with gonococci. In separate assays, infection supernatants were collected from wild-type or PLD mutant-infected cervical cell monolayers, gonococci were removed by filtration through a 0.22 μm syringe filter (to yield primed wild-type or mutant supernatants), which were then added to association and/or invasion assays, as noted. The ability of gonococci to adhere to and/or invade pex and pen cells was quantitatively determined using standard gentimicin-resistance assays, performed as described previously (Edwards et al., 2000) and in which chemical or protein additives were included or excluded from the invasion assay as described above. The total association (i.e., adherence and invasion) of gonococci with pex and pen cells was quantitated by the omission of gentimicin from the above described invasion assay. Percent invasion of N. gonorrhoeae 1291 or 1291ΔPLD in the presence or absence of experimental additives was determined as a function of the original inoculum and the number of colonies formed with subsequent plating of the cellular lysate. Inhibition of gonococcal attachment and/or invasion by exogenous PtC, ethanol, or 2-butanol was determined as a normalized function of the ability of gonococci to attach to and/or invade primary cervical cells in the absence of the competimer inhibitor. A Kruskal-Wallis non-parametric analysis of variance was used to determine the statistical significance of the association and invasion assays described above.

gonococci = conditions: 1.0, 0.1, or 0.01 percent alcohol, absence of cervical cells (data not shown)
Experimental: Consequently, it was determined if exogenously added PLD substrates could compete with cervical cell constituents for NgPLD activity and in doing so interfere with the role of NgPLD in gonococcal invasion.

primary cervical cells = assay: Association and invasion assays, primary cervical cells (cell type not specified); type: cell-based, human; conditions: for intracellular survival of PLD mutant gonococci: 100 μM pervanadate or 200 nM PMA
Experimental: The anti-PLD antibody was screened for specificity to PLD using assays well-known to the art.
as §1

Endocervical Cells = assay: Association and invasion (gentimicin-resistance) assays, primary endocervical (pen) cells; type: cell-based, human; conditions: 1291 + 100 nM DPG
Experimental: as §1, with “Alternatively, where noted, cervical cell monolayers were pre-incubated (30 minutes, 37° C.) with pervanadate, which was made by mixing 100 μM ortho-sodium vanadate in 3 mM hydrogen peroxide. In separate assays, infection supernatants were collected from wild-type or PLD mutant-infected cervical cell monolayers, gonococci were removed by filtration through a 0.22 μm syringe filter (i.e., wild-type or mutant primed supernatants) and were added to association and/or invasion assays, as noted.” left out, “A Kruskal-Wallis non-parametric analysis of variance was used to determine the statistical significance of the association and invasion assays described above.” left out

PLD = PLD activity (Amplex Red Phospholipase D Assay Kit) in gonococci, infected cervical cell lysates, fractions and supernatants; type: biochemical, N. gonorrhoeae
Experimental: (§2) 4. Determination of PLD Activity. PLD activity was accessed using the Amplex™ Red Phospholipase D Assay Kit (Molecular Probes, Eugene Oreg.). Wild-type and PLD mutant gonococci were suspended in PLD assay buffer to a final concentration of 10^7 bacteria ml^−1, and activity was determined according to the manufacturer's protocol. Assessment of PLD activity at acidic pH was determined in a two-step assay according to the manufacturer's protocol. For the first step, 10^8 gonococci were suspended in PBS with the pH adjusted to 3.0, 4.5, or 6.0. Gonococcal suspensions were diluted 10-fold in PLD assay buffer for the second step of the reaction. Cervical cell fractions were prepared as outlined below and PLD activity was assessed at neutral pH according to the manufacturer's protocol.
5. Fractionation of Primary Cervical Cells. Uninfected (control) and infected cervical cell monolayers were lysed in buffer A (50 mM tris, pH 7.5; 10 mM NaCl, 1 mM KCl; 2 mM MgCl2, 1 mM PMSF) by scraping cervical cells from tissue culture dishes placed on ice. The cell lysate was sonicated (two bursts of 20 seconds each). Cell debris and the nuclear fraction was removed by centrifugation (750×g, 10 minutes), and the supernatant from this spin was then subjected to filtration through a low-protein binding 0.22 μm syringe filter to ensure removal of gonococci. Alternatively, gonococci were removed by immunoprecipitation (as described by Wen et al., 2000) using the monoclonal antibody, 2C3, which recognizes the H.8 outer membrane protein of the pathogenic Neisseria. Sucrose was added to the resulting gonococcus-depleted supernatant (S1) to a final concentration of 300 mM. Ultracentrifugation (150,000×g, 90 minutes) was then performed to produce the plasma membrane-(pellet) and cytosol (supernatant 2, S2)-enriched fractions. The membrane-enriched fraction was resuspended in PLD assay buffer (50 mM Tris, 5 mM CaCl2, pH 8.0). S2 was concentrated by filtration through Centricon YM-30 centrifugal filter units (Millipore) after which cytosolic constituents were recovered in PLD assay buffer. Where indicated, prior to infection studies primary pex and pen cell monolayers were treated with 300 nM wortmannin (Sigma) (2 hours, 37° C.) or 1 μM cytochalasin D (Sigma) (30 minutes, 37° C.) to inhibit macropinocytosis of gonococci. Wortmannin and cytochalasin D were maintained in cervical cell cultures during the course of infection.
as §2, with “Determination of” for “4. Determination of”, “Assessment of gonococcal PLD activity” for “Assessment of PLD activity”
Fractionation of Primary Cervical Cells. Uninfected (control) and infected cervical cell monolayers were lysed in buffer A (50 mM tris, pH 7.5; 10 mM NaCl, 1 mM KCl; 2 mM MgCl2, 1 mM PMSF) by scraping cervical cells from tissue culture dishes placed on ice. The cell lysate was sonicated (two bursts of 20 seconds each). […] Sucrose was added to the resulting gonococcus-depleted supernatant (S1) to a final concentration of 300 mM. Ultracentrifugation (150,000×g, 90 minutes) was then performed to produce the plasma membrane-(pellet) and cytosol (supernatant 2, S2)-enriched fractions. The membrane-enriched fraction was resuspended in PLD assay buffer (50 mM Tris, 5 mM CaCl2, pH 8.0). […]

CR3 = CR3 surface expression on primary cervical cells (ELISA with H5A4); type: cell-based, human; conditions: for CR3 recruitment to the cervical cell surface: PLD mutant infected cells, 100 μM pervanadate or 200 nM PMA; for CR3 surface level expression: uninfected cervical cells
Experimental: As described hereinbelow, primary cervical cells were seeded in 96-well microtiter plates to comparatively quantitate surface level expression of CR3. In the procedure, cells were (i) uninfected; (ii) challenged with wild-type gonococci; (iii) challenged with PLD-mutant gonococci; and/or (iv) challenged with filtered, primed (see infra) wild-type or PLD-mutant gonococcal supernatants. After removal of the infection supernatant, cell monolayers were rinsed, fixed and subsequently labeled with an antibody (anti-CD11b antibody H5A4; Hildreth and August, 1985) specific for the CR3 I-domain subunit followed by an HRP antibody-conjugate (commercially available from Kirkegaard & Perry Laboratories, Gaithersburg, Md.) using standard ELISA protocols. Absorbance of the o-phenylenediamine dihydrochloride peroxidase substrate was determined spectrophotometrically at 490 nm (FIG. 15).
7. Determination of CR3 Surface Expression on Primary Cervical Cells. Pex and pen cells were passed to 96-well microtiter plates and allowed to grow to confluence. Cervical cells were then challenged with wild-type or PLD mutant gonococci after which the infection medium was removed and cells were rinsed thrice with PBS. Cells were fixed with 2% paraformaldehyde. Prior to immuno-analysis of CR3 surface level expression, cells were again rinsed with PBS. Immunoassays were then performed according to standard ELISA protocols using the H5A4 anti-CD11b (i.e., CR3) primary and peroxidase-conjugated secondary antibodies. Absorbance of the o-phenylenediamine dihydrochloride peroxidase substrate was determined spectrophotometrically at 490 nm. Primary antibody was omitted from one well, and the secondary antibody was omitted from a second well, which served as a control for endogenous peroxidase activity. Where indicated 200 nM phorbol myristate (PMA), 200 nM 4-α phorbol, 100 μM pervanadate, 3 mM hydrogen peroxide, or gonococci-depleted supernatants collected from wild-type or PLD mutant infection studies were included in the infection studies as outlined below.
Determination of CR3 Surface Expression on Primary Cervical Cells. Pex and pen cells were passed to 96-well microtiter plates and allowed to grow to confluence. Cervical cells were then challenged with wild-type or PLD mutant gonococci after which the infection medium was removed and cells were rinsed thrice with PBS. Cells were fixed with 2% paraformaldehyde. Prior to immuno-analysis of CR3 surface level expression, cells were again rinsed with PBS. Immunoassays were then performed according to standard ELISA protocols using the H5A4 anti-CD11b (i.e., CR3) primary and peroxidase-conjugated secondary antibodies. Absorbance of the o-phenylenediamine dihydrochloride peroxidase substrate was determined spectrophotometrically at 495 nm. […]

[1] = 1291 WT, alcohol competimer 0.01 %
[2] = 1291 WT, alcohol competimer 0.1 %
[3] = 1291 WT, alcohol competimer 1.0 %
[4] = Ectocervical Cells, 1291 + 100 nM DPG

## CCC(C)O (stereo not drawn) [2-Butanol, 2-butanol]
Ectocervical Cells; [1]
  Invasion (%): 2.8661 (0.53) %
Ectocervical Cells; [2]
  Invasion (%): 2.7087 (0.47) %
Ectocervical Cells; [3]
  Invasion (%): 2.6869 (0.47) %
Ectocervical Cells; 1291ΔPLD, alcohol competimer 0.01 %
  Invasion (%): 0.2819 (0.02) %
Ectocervical Cells; 1291ΔPLD, alcohol competimer 0.1 %
  Invasion (%): 0.3172 (0.03) %
Ectocervical Cells; 1291ΔPLD, alcohol competimer 1.0 %
  Invasion (%): 0.2960 (0.05) %
gonococci
  survival of gonococci: no significant difference in survival

## O=C(O)C(COP(=O)(O)O)OP(=O)(O)O (stereo not drawn) [DPG, 2,3-diphosphoglycerate]
Primary cervical cells
  effect on PLD activity, association and invasion of cervical cells by gonococci: inhibits gonococcal association and invasion
Ectocervical Cells; [4]
  Association, Mean: 15.31
  Invasion, Mean: 0.36
Endocervical Cells
  Association, Mean: 6.97
  Invasion, Mean: 0.21

## CCO [Ethanol, ethanol]
Ectocervical Cells; [1]
  Inhibition (%): 74.9582 (0.87) %
  Invasion (%): 0.6957 (0.02) %
Ectocervical Cells; [2]
  Inhibition (%): 80.9243 (1.41) %
  Invasion (%): 0.5288 (0.01) %
Ectocervical Cells; [3]
  Invasion (%): 0.2564 (0.01) %
Ectocervical Cells; 1291 WT, alcohol competimer 1.0 %, variance in parentheses
  Inhibition (%): 90.7346 (0.92) %
gonococci
  survival of gonococci: no significant difference in survival

## OO [H2O2, hydrogen peroxide]
PLD; No cervical cells
  PLD activity (Table 3, untitled): 0.961
PLD; gonococci alone and assay control (Table 7B, C)
  Mean PLD activity, No Cells: 0.885
PLD; positive control
  PLD activity, Assay Controls (Table 4C): 0.781
PLD; positive control (Table 8A)
  PLD activity, Assay Controls, mean: 1.557
Primary cervical cells; negative controls: 200 nM 4-α phorbol, 3 mM hydrogen peroxide
  effect on gonococcal association, invasion or CR3 cell surface recruitment: No effect was observed

## CCCCCCCCCCCCCC(=O)O[C@@H]1[C@@H](C)[C@@]2(O)[C@@H](C=C(CO)C[C@]3(O)C(=O)C(C)=C[C@@H]23)[C@@H]2C(C)(C)[C@]12OC(C)=O [PMA, phorbol myristate]
Primary cervical cells
  intracellular survival of PLD mutant gonococci: partially restored intracellular survival
CR3
  CR3 recruitment to the cervical cell surface: rescued CR3 recruitment
  CR3 surface level expression: increased CR3 surface level expression

## pervanadate
Primary cervical cells
  intracellular survival of PLD mutant gonococci: not sufficient to allow the intracellular survival
CR3
  CR3 recruitment to the cervical cell surface: rescues CR3 recruitment
  CR3 surface level expression: does not stimulate CR3 surface recruitment
